Assay results as given in PubChem BioAssay (NCI).
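Test compounds were applied to cells in 96-well plates for 48 hours at 5 doses. GI50 = concentration required for 50% inhibition of growth. Definition used: TGI = concentration required for complete inhibition of growth.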

How the values were obtained:
Test in all cases: growth of human tumour cells (NCI), 48 h
EKVX NSCLC = tested on: EKVX NSCLC
RXF 393 renal = tested on: RXF 393 renal
HCT-116 colon = tested on: HCT-116 colon
U251 CNS = tested on: U251 CNS
PC-3 prostate = tested on: PC-3 prostate
MDA-N = tested on: MDA-N
LOX IMVI melanoma = tested on: LOX IMVI melanoma
KM12 colon = tested on: KM12 colon
MDA-MB-435 = tested on: MDA-MB-435
HOP-62 NSCLC = tested on: HOP-62 NSCLC
RPMI-8226 leukemia = tested on: RPMI-8226 leukemia
OVCAR-5 ovarian = tested on: OVCAR-5 ovarian
CAKI-1 renal = tested on: CAKI-1 renal
COLO 205 colon = tested on: COLO 205 colon
ACHN renal = tested on: ACHN renal
MCF7 breast = tested on: MCF7 breast
SF-539 CNS = tested on: SF-539 CNS
OVCAR-3 ovarian = tested on: OVCAR-3 ovarian
HS 578T breast = tested on: HS 578T breast
MALME-3M melanoma = tested on: MALME-3M melanoma
TK-10 renal = tested on: TK-10 renal
OVCAR-4 ovarian = tested on: OVCAR-4 ovarian
SF-295 CNS = tested on: SF-295 CNS
DU-145 prostate = tested on: DU-145 prostate
NCI-H23 lung = tested on: NCI-H23 lung
K-562 leukemia = tested on: K-562 leukemia
UO-31 renal = tested on: UO-31 renal
OVCAR-8 ovarian = tested on: OVCAR-8 ovarian
A549 NSCLC = tested on: A549 NSCLC
UACC-257 melanoma = tested on: UACC-257 melanoma
SW-620 colon = tested on: SW-620 colon
A498 renal = tested on: A498 renal
HT29 colon = tested on: HT29 colon
SN12C renal = tested on: SN12C renal
SK-MEL-5 melanoma = tested on: SK-MEL-5 melanoma
NCI-H522 lung = tested on: NCI-H522 lung
HL-60(TB) leukemia = tested on: HL-60(TB) leukemia
IGROV1 ovarian = tested on: IGROV1 ovarian
HOP-92 NSCLC = tested on: HOP-92 NSCLC
786-0 renal = tested on: 786-0 renal
SK-MEL-28 melanoma = tested on: SK-MEL-28 melanoma
NCI/ADR-RES ovarian = tested on: NCI/ADR-RES ovarian
NCI-H226 lung = tested on: NCI-H226 lung
SR leukemia = tested on: SR leukemia
HCT-15 colon = tested on: HCT-15 colon
MDA-MB-231 breast = tested on: MDA-MB-231 breast
BT-549 breast = tested on: BT-549 breast
SNB-19 CNS = tested on: SNB-19 CNS
NCI-H460 lung = tested on: NCI-H460 lung
HCC-2998 colon = tested on: HCC-2998 colon
CCRF-CEM leukemia = tested on: CCRF-CEM leukemia
SNB-75 CNS = tested on: SNB-75 CNS
UACC-62 melanoma = tested on: UACC-62 melanoma
T-47D breast = tested on: T-47D breast
MOLT-4 leukemia = tested on: MOLT-4 leukemia
M14 melanoma = tested on: M14 melanoma
SK-MEL-2 melanoma = tested on: SK-MEL-2 melanoma
SF-268 CNS = tested on: SF-268 CNS
SK-OV-3 ovarian = tested on: SK-OV-3 ovarian

## NC(Cc1ccc(OCc2ccccc2)cn1)C(=O)OCc1ccccc1 (stereo unspecified)
EKVX NSCLC
  TGI: > 100 µM
RXF 393 renal
  TGI: > 100 µM
HCT-116 colon
  TGI: > 100 µM
U251 CNS
  TGI: > 100 µM
PC-3 prostate
  TGI: > 100 µM
MDA-N
  TGI: > 100 µM
LOX IMVI melanoma
  TGI: > 100 µM
KM12 colon
  TGI: > 100 µM
MDA-MB-435
  TGI: > 100 µM
HOP-62 NSCLC
  TGI: > 100 µM
RPMI-8226 leukemia
  TGI: > 100 µM
OVCAR-5 ovarian
  TGI: > 100000 nM
CAKI-1 renal
  TGI: > 100 µM
COLO 205 colon
  TGI: > 100 µM
ACHN renal
  TGI: > 100 µM
MCF7 breast
  TGI: > 100 µM
SF-539 CNS
  TGI: > 100 µM
OVCAR-3 ovarian
  TGI: > 100 µM
HS 578T breast
  TGI: > 100 µM
MALME-3M melanoma
  TGI: > 100 µM
TK-10 renal
  TGI: > 100 µM
OVCAR-4 ovarian
  TGI: > 100 µM
SF-295 CNS
  TGI: > 100 µM
DU-145 prostate
  TGI: > 100 µM
NCI-H23 lung
  TGI: > 100 µM
K-562 leukemia
  TGI: > 100 µM
UO-31 renal
  TGI: > 100 µM
OVCAR-8 ovarian
  TGI: > 100 µM
A549 NSCLC
  TGI: > 100 µM
UACC-257 melanoma
  TGI: > 100 µM
SW-620 colon
  TGI: > 100 µM
A498 renal
  TGI: > 100 µM
HT29 colon
  TGI: > 100 µM
SN12C renal
  TGI: > 100 µM
SK-MEL-5 melanoma
  TGI: > 100000 nM
NCI-H522 lung
  TGI: > 100 µM
HL-60(TB) leukemia
  TGI: > 100 µM
IGROV1 ovarian
  TGI: > 100 µM
HOP-92 NSCLC
  TGI: > 100 µM
786-0 renal
  TGI: > 100 µM
SK-MEL-28 melanoma
  TGI: > 100 µM
NCI/ADR-RES ovarian
  TGI: > 100 µM
NCI-H226 lung
  TGI: > 100 µM
SR leukemia
  TGI: > 100 µM
HCT-15 colon
  TGI: > 100 µM
MDA-MB-231 breast
  TGI: > 100 µM
BT-549 breast
  TGI: > 100 µM
SNB-19 CNS
  TGI: > 100 µM
NCI-H460 lung
  TGI: > 100 µM
HCC-2998 colon
  TGI: > 100 µM
CCRF-CEM leukemia
  TGI: > 100 µM

## CC(=O)O[C@H]1C(=O)[C@@]2(C)[C@H]([C@H](OC(=O)c3ccccc3)[C@]3(O)C[C@H](OC(=O)[C@H](O)[C@@H](NC(=O)c4ccoc4)c4ccccc4)C(C)=C1C3(C)C)[C@]1(OC(C)=O)CO[C@@H]1C[C@@H]2O
EKVX NSCLC
  GI50: 17.2 µM
  TGI: > 100 µM
PC-3 prostate
  TGI: > 100 µM
MDA-N
  TGI: 0.0166 µM
SNB-75 CNS
  GI50: 53.1 nM
LOX IMVI melanoma
  TGI: > 100 µM
KM12 colon
  TGI: 14.1 µM
MDA-MB-435
  TGI: 0.039 µM
HOP-62 NSCLC
  TGI: 16.4 µM
RPMI-8226 leukemia
  TGI: > 100 µM
OVCAR-5 ovarian
  TGI: 91 nM
UACC-62 melanoma
  TGI: 31.9 µM
COLO 205 colon
  TGI: 16.9 µM
ACHN renal
  GI50: 58.4 nM
  TGI: > 100 µM
SF-539 CNS
  TGI: 0.257 µM
TK-10 renal
  GI50: 164 nM
  TGI: 40.4 µM
OVCAR-4 ovarian
  TGI: > 100 µM
T-47D breast
  GI50: 26.3 µM
  TGI: > 100 µM
SF-295 CNS
  TGI: 22.9 µM
DU-145 prostate
  TGI: > 100 µM
NCI-H23 lung
  TGI: 31.2 µM
K-562 leukemia
  GI50: 33.7 nM
  TGI: > 100 µM
MOLT-4 leukemia
  GI50: 42 nM
  TGI: > 100 µM
UO-31 renal
  TGI: > 100 µM
OVCAR-8 ovarian
  TGI: 47.8 µM
A549 NSCLC
  TGI: > 100 µM
UACC-257 melanoma
  TGI: 68.5 µM
M14 melanoma
  TGI: 661 nM
SW-620 colon
  TGI: > 100 µM
SK-MEL-2 melanoma
  GI50: 27.8 µM
A498 renal
  TGI: 0.698 µM
SN12C renal
  TGI: > 100 µM
SK-MEL-5 melanoma
  TGI: 399 nM
SF-268 CNS
  TGI: > 100 µM
NCI/ADR-RES ovarian
  TGI: > 100 µM
SK-OV-3 ovarian
  TGI: 32.7 µM
SR leukemia
  TGI: 47 µM
HCT-15 colon
  GI50: 907 nM
  TGI: > 100 µM
SNB-19 CNS
  TGI: > 100 µM
NCI-H460 lung
  TGI: 28 µM
CCRF-CEM leukemia
  GI50: 33.4 nM
  TGI: > 100 µM

## CCOC(=O)C(NC(=O)CC)(C(F)(F)F)P(=O)(OCC)OCC (stereo unspecified)
EKVX NSCLC
  TGI: > 100 µM
HCT-116 colon
  TGI: > 100 µM
U251 CNS
  TGI: > 100 µM
MDA-N
  TGI: > 100 µM
SNB-75 CNS
  TGI: > 100 µM
MDA-MB-435
  TGI: > 100 µM
HOP-62 NSCLC
  TGI: > 100 µM
RPMI-8226 leukemia
  TGI: > 100 µM
UACC-62 melanoma
  TGI: > 100 µM
ACHN renal
  TGI: > 100 µM
MCF7 breast
  TGI: > 100 µM
SF-539 CNS
  TGI: > 100 µM
MALME-3M melanoma
  TGI: > 100 µM
T-47D breast
  TGI: > 100 µM
DU-145 prostate
  TGI: > 100 µM
K-562 leukemia
  TGI: > 100 µM
MOLT-4 leukemia
  TGI: > 100 µM
UO-31 renal
  TGI: > 100 µM
M14 melanoma
  TGI: > 100000 nM
A498 renal
  TGI: > 100 µM
HT29 colon
  TGI: > 100 µM
SN12C renal
  TGI: > 100 µM
NCI-H522 lung
  TGI: > 100 µM
HL-60(TB) leukemia
  TGI: > 100 µM
SF-268 CNS
  TGI: > 100 µM
SK-MEL-28 melanoma
  TGI: > 100 µM
SK-OV-3 ovarian
  TGI: > 100 µM
SR leukemia
  TGI: > 100 µM
HCT-15 colon
  TGI: > 100 µM
MDA-MB-231 breast
  TGI: > 100 µM
HCC-2998 colon
  TGI: > 100 µM
CCRF-CEM leukemia
  TGI: > 100 µM
